Results on 2 compounds are retold here after patent US20170202218A1, “Materials for Disinfection Produced by Non-Thermal Plasma” (DREXEL UNIVERSITY, priority 2010, published 2017).

The structures appear in SMILES notation.

The test system of one assay is E. coli. The note with it: dispersed for 15 sec, no corona discharge applied.
The test system of the next assay is E coli. The note with it: in solution, after only 30 seconds; cited from earlier work.

Excerpt for E. coli: An agar place of bacterial (containing colonies of 10^5 E. coli) was placed on top of a grounded metal plate.

In the case of `CCO` [alcohol, ethanol], in the assay with E. coli, the “disinfection of E. coli on agar plate” value is given as “some spotty effects”.

Consider `[H]/N=C(\N/C(=N/[H])NCCCCCCNC(=N)NC(=N)Nc1ccc(Cl)cc1)Nc1ccc(Cl)cc1` [chlorhexidine], for which the “log reduction in E coli” value in the assay on E coli is 3.5 log.
